Results published in US4395399A, “Glycopeptides and method for preparing same” (Institut Bioorganicheskoi Khimii Imeni M.M. Shemyakina …, priority 1977, dated 1983).
Like-named read-outs stand apart in the source and are kept apart here. Where a SMILES comes first, the peptide text is derived from it. [ ]: non-standard residue; d: D form.

Tested on: 8-day Krocker sarcoma (S-180)
Settings: for Necrotic reaction shown after 24 h, number of animals / Death of animals / Inhibition of the tumor growth, % of the control: intravenous; for Necrotic reaction shown after 24 h, number of animals: mice with 8-day sarcoma S-180, 24 h; for Death of animals / Necrosis caused by constituent components of the glycopeptides: mice with sarcoma S-180; for Inhibition of the tumor growth, % of the control: tumor volume or weight after 4-5 days
[1] = single intravenous dose 100 mg/kg

Row | Compound | Necrotic reaction shown after 24 h, number of animals (dose 50 mg/kg) | Inhibition of the tumor growth, % of the control (dose 50 mg/kg) | Necrotic reaction shown after 24 h, number of animals (dose 100 mg/kg) | Death of animals (dose 100 mg/kg) | Inhibition of the tumor growth, % of the control (dose 100 mg/kg) | Necrotic reaction shown after 24 h, number of animals (dose 250 mg/kg) | Death of animals (dose 250 mg/kg) | Inhibition of the tumor growth, % of the control (dose 250 mg/kg) | Necrosis caused by constituent components of the glycopeptides | further results
1 | CC(=O)NC1C(OC2C(CO)OC(O)C(NC(C)=O)C2OC(C)C(=O)NC(C)C(=O)NC(CCC(=O)O)C(N)=O)OC(CO)C(O)C1O [Compound II, N-acetylglucosaminyl/1→4/N-acetylmuramyl-alanyl-D-isoglutamine] | 8/10 | 12 % of the control | 4/5 | 0 | 70 % of the control | – | – | – | – | Death of animals (dose 50 mg/kg): 0; Hemopoiesis [1]: not inhibited; Number of leukocytes [1]: substantially increased; Signs of toxicity [1]: no signs of toxicity are noticed; Test animals with selective necrosis of the tumor tissue covering substantially the entire tumor (single intravenous dose 100 mg/kg, 24 hours after administration): four out of five; Inhibition of the growth of the malignant tumor as compared to the control animals (single intravenous dose 100 mg/kg, after 5 days): 70%
2 | CC(=O)NC1C(OC2C(CO)OC(O)C(NC(C)=O)C2OC(C)C(=O)NC(C)C(=O)NC(CCC(=O)O)C(=O)O)OC(CO)C(O)C1O [III, N-acetylglucosaminyl/1→4/N-acetylmuramyl-alanyl-D-glutamic acid] | 4/10 | – | 3/5 | – | – | – | – | – | – | –
3 | CC(=O)N[C@H]1C(O)O[C@H](CO)[C@@H](O)[C@@H]1O[C@H](C)C(=O)O (stereo partly shown) [VII, N-acetylmuramic acid] | – | – | 0/8 | 0 | 37 % of the control | 0/8 | 25 | 52 % of the control | not caused | –
4 | N-acetyl-glucosaminyl/1→4/N-acetylmuramylalanine [Compound I] | 2/5 | 17 % of the control | 3/5 | 0 | 19 % of the control | – | – | – | – | Death of animals (dose 50 mg/kg): 0
5 | amide of N^ε -[N-acetylglucosaminyl/1→4/N-acetylmuramyl-alanyl-D-glutamyl-D-iso- asparaginyl]-lysyl-D-alanine [IV] | 3/5 | 23 % of the control | 3/5 | – | 41 % of the control | – | – | – | – | –
6 | /1→4/-bis-[N-acetylglucosaminyl/1→4/N-acetylmuramyl-alanyl-D- isoglutamine] [V] | 3/5 | 66 % of the control | – | – | – | – | – | – | – | Death of animals (dose 50 mg/kg): 0
7 | CC(=O)N[C@H]1C(O[C@H]2[C@H](O[C@H](C)C(=O)O)[C@@H](NC(C)=O)C(O)O[C@@H]2CO)O[C@H](CO)[C@@H](O)[C@@H]1O (stereo partly shown) [VIII, N-acetylglucosaminyl/1→4/N-acetylmuramic acid] | – | – | 0/10 | 0 | 0 % of the control | 0/10 | 0 | 0 % of the control | not caused | –
8 | C[C@H](N)C(=O)N[C@H](CCC(=O)O)C(=O)O [XI, Ala-D-Glu] (H-Ala-[dE]-OH) | – | – | 0/8 | 0 | 37.3 % of the control | – | – | – | not caused | –
9 | CC(=O)N[C@H]1C(O)O[C@H](CO)[C@@H](O)[C@@H]1O (stereo partly shown) [VI, N-acetylglucosamine] | – | – | – | – | – | 0.5 | 0 | 0 % of the control | not caused | –
10 | C[C@H](N)C(=O)N[C@H](CCC(=O)O)C(N)=O [X, Ala-D-Glu-NH2] (H-Ala-[dE]-NH2) | – | – | 0/10 | 0 | +28 % of the control | – | – | – | not caused | –
11 | Amide of N^ε [Alanyl-D-glutamyl-D-iso-asparaginyl]-lysyl-D-alanine [XII] | – | – | – | – | – | 0/5 | – | 0 % of the control | – | –
12 | CC(=O)N[C@H]1C(O[C@H]2[C@H](O[C@H](C)C(=O)O)[C@@H](NC(C)=O)C(O[C@H]3[C@H](O)[C@@H](NC(C)=O)C(O[C@H]4[C@H](O[C@H](C)C(=O)O)[C@@H](NC(C)=O)C(O)O[C@@H]4CO)O[C@@H]3CO)O[C@@H]2CO)O[C@H](CO)[C@@H](O)[C@@H]1O (stereo partly shown) [IX, N-acetylglucosaminyl /1→4/-N-acetylmuramyl/1→4/N-acetylglucosaminyl/1→4/N- acetylmuramic acid] | – | – | – | – | – | 0/10 | 0 | 0 % of the control | not caused | –
